Laboratory results reported in patent US12052991B2, “Substituted pyridinyloxybenzenes and salts thereof and use thereof as herbicidal agents” (Bayer Aktiengesellschaft, priority 2018, dated 2024).

Tests used:
Assay type in all cases: in vivo
Setaria viridis (SETVI) [1] = assay: Herbicidal post-emergence action (Table B4); details: rated visually after about 3 weeks, 100% = plants have died, 0% = like control plants
Procedure: Seeds of mono- and dicotyledonous weed plants were placed in plastic pots in sandy loam soil (doubly sown with in each case one species of mono- or dicotyledonous weed plants per pot), covered with soil and cultivated in a greenhouse under controlled growth conditions. 2 to 3 weeks after sowing, the test plants were treated at the one-leaf stage. The compounds of the invention, formulated in the form of wettable powders (WP) or as emulsion concentrates (EC), were applied onto the green parts of the plants as aqueous suspension or emulsion with addition of 0.5% additive at a water application rate of 600 liters per hectare (converted). After the test plants had been kept in the greenhouse under optimum growth conditions for about 3 weeks, the activity of the preparations was rated visually in comparison to untreated controls. For example, 100% activity=the plants have died, 0% activity=like control plants. Tables B1 to B12 below show the effects of selected compounds of the general formula (I) according to Table 1 on various harmful plants and an application rate corresponding to 1280 or 320 g/ha, which were obtained by the experimental procedure mentioned above.

[2] = system: harmful plants ABUTH, AMARE, ECHCG, LOLRI, MATIN, POAAN, SETVI, STEME, ALOMY, DIGSA, KCHSC and VERPE; assay: Herbicidal post-emergence action, summary of Tables B1-B12; details: application rate of 1280 or 320 g of active ingredient per hectare; summary in words
Method in brief: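 Greenhouse weeds in sandy loam treated post-emergence at the one-leaf stage, 2–3 weeks after sowing, with WP or EC formulations sprayed with 0.5% additive at 600 L/ha water, 1280 or 320 g/ha. Damage rated visually after about 3 weeks versus untreated controls (0% = like control, 100% = dead).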

Stellaria media (STEME) [3] = assay: Herbicidal pre-emergence action, test C (Table C8); details: visual scoring after about 3 weeks, 100% = plants have died, 0% = like control plants
Method in brief: (§1)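 Sandy loam, doubly sown pots; surface spray pre-emergence; 1280 or 320 g/ha; 0.5% additive; 600 L/ha. Greenhouse, ~3 weeks. Visual % vs untreated.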

[4] = system: Digitaria sanguinalis (DIGSA); assay: Herbicidal pre-emergence action, test C (Table C10); details: visual scoring after about 3 weeks, 100% = plants have died, 0% = like control plants
Method in brief: as §1

[5] = system: Abutilon theophrasti (ABUTH); assay: Herbicidal pre-emergence action, test C (Table C5); details: visual scoring after about 3 weeks, 100% = plants have died, 0% = like control plants
Method in brief: as §1

Lolium rigidum (LOLRI) = assay: Herbicidal pre-emergence action, test C (Table C2); details: dosage 1280 g/ha; visual scoring after about 3 weeks; 100% = plants have died, 0% = like control plants
Text: (§2) Seeds of mono- and dicotyledonous weed plants were placed in plastic pots in sandy loam soil (doubly sown with one species each of mono- or dicotyledonous weed plants per pot) and covered with soil. The compounds of the invention, formulated in the form of wettable powders (WP) or as emulsion concentrates (EC), were then applied onto the surface of the covering soil as aqueous suspension or emulsion with addition of 0.5% additive at a water application rate of 600 liters per hectare (converted). After the treatment, the pots were placed in a greenhouse and kept under good growth conditions for the test plants. After about 3 weeks, the effect of the preparations was scored visually in comparison with untreated controls as percentages. For example, 100% activity=the plants have died, 0% activity=like control plants. Tables C1 to C12 below show the effects of selected compounds of the general formula (I) according to Table 1 on various harmful plants and an application rate corresponding to 1280 or 320 g/ha, which were obtained by the experimental procedure mentioned above.

Veronica persica (VERPE) [6] = assay: Herbicidal post-emergence action (Table B12); details: visual rating about 3 weeks after treatment, 100% = plants have died, 0% = like control plants
Method in brief: (§3)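 Weeds grown from seed in sandy loam in the greenhouse were sprayed at the one-leaf stage, 2 to 3 weeks after sowing, with WP or EC formulations in water plus 0.5% additive at 600 L/ha. Rates corresponded to 1280 or 320 g/ha; damage was rated visually versus untreated controls after about 3 weeks.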

[7] = system: Alopecurus myosuroides (ALOMY); assay: Herbicidal pre-emergence action, test C (Table C9); details: visual scoring after about 3 weeks, 100% = plants have died, 0% = like control plants
Text: as §2

Veronica persica (VERPE) [8] = assay: Herbicidal pre-emergence action, test C (Table C12); details: visual scoring vs untreated controls
Method in brief: as §1

[9] = system: Echinochloa crus-galli (ECHCG); assay: Herbicidal pre-emergence action, test C (Table C1); details: visual scoring after about 3 weeks, 100% = plants have died, 0% = like control plants
Text: as §2

[10] = system: Abutilon theophrasti (ABUTH); assay: Herbicidal post-emergence action (Table B5); details: rated visually after about 3 weeks, 100% = plants have died, 0% = like control plants
Method in brief: as §3

Bassia scoparia (KCHSC) [11] = assay: Herbicidal post-emergence action (Table B11); details: visual rating about 3 weeks after treatment, 100% = plants have died, 0% = like control plants
Method in brief: as §3

[12] = system: Digitaria sanguinalis (DIGSA); assay: Herbicidal post-emergence action (Table B10); details: visual rating about 3 weeks after treatment, 100% = plants have died, 0% = like control plants
Method in brief: as §3

[13] = system: Amaranthus retroflexus (AMARE); assay: Herbicidal pre-emergence action, test C (Table C6); details: visual scoring after about 3 weeks, 100% = plants have died, 0% = like control plants
Method in brief: as §1

Setaria viridis (SETVI) [14] = assay: Herbicidal pre-emergence action, test C (Table C4); details: visual scoring after about 3 weeks, 100% = plants have died, 0% = like control plants
Method in brief: as §1

Poa annua (POAAN) [15] = assay: Herbicidal post-emergence action (Table B3); details: rated visually after about 3 weeks, 100% = plants have died, 0% = like control plants
Method in brief: as §3

[16] = system: Amaranthus retroflexus (AMARE); assay: Herbicidal post-emergence action (Table B6); details: visual rating about 3 weeks after treatment, 100% = plants have died, 0% = like control plants
Method in brief: as §3

[17] = system: Echinochloa crus-galli (ECHCG); assay: Herbicidal post-emergence action (Table B1); details: 1280 g/ha; rated visually after about 3 weeks; 100% = plants have died, 0% = like control plants
Method in brief: as §3

[18] = system: Alopecurus myosuroides (ALOMY); assay: Herbicidal post-emergence action (Table B9); details: rated visually after about 3 weeks, 100% = plants have died, 0% = like control plants
Method in brief: as §3

Stellaria media (STEME) [19] = assay: Herbicidal post-emergence action (Table B8); details: visual rating about 3 weeks after treatment, 100% = plants have died, 0% = like control plants
Method in brief: as §3

[20] = system: harmful plants ABUTH, AMARE, ECHCG, LOLRI, MATIN, POAAN, SETVI, STEME, ALOMY, DIGSA, KCHSC and VERPE; assay: Herbicidal pre-emergence action (test C), summary of Tables C1-C12; details: application rate of 1280 or 320 g of active ingredient per hectare; summary in words
Method in brief: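 Pre-emergence pot test in sandy loam: WP or EC formulations were sprayed onto the covering soil with 0.5% additive at 600 L/ha water, at 1280 or 320 g/ha. Plants were kept in the greenhouse, and activity was rated visually about 3 weeks later as % versus untreated controls (100% = dead).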

Bassia scoparia (KCHSC) [21] = assay: Herbicidal pre-emergence action, test C (Table C11); details: visual scoring vs untreated controls
Text: as §2

Poa annua (POAAN) [22] = assay: Herbicidal pre-emergence action, test C (Table C3); details: visual scoring after about 3 weeks, 100% = plants have died, 0% = like control plants
Method in brief: as §1

Row | Structure (SMILES) | herbicidal activity against the harmful plants of Tables B1-B12 in post-emergence treatment [2] | Pre-emergence action against Stellaria media (STEME) (Stellaria media (STEME) [3]; dosage 1280 g/ha) [%] | Pre-emergence action against Digitaria sanguinalis (DIGSA) ([4]; dosage 1280 g/ha) [%] | Pre-emergence action against Abutilon theophrasti (ABUTH) ([5]; dosage 1280 g/ha) [%] | Post-emergence action against Veronica persica (VERPE) (Veronica persica (VERPE) [6]; dosage 320 g/ha) [%] | Post-emergence action against Veronica persica (VERPE) (Veronica persica (VERPE) [6]; dosage 1280 g/ha) [%] | Pre-emergence action against Veronica persica (VERPE) (Veronica persica (VERPE) [8]; dosage 1280 g/ha) [%] | Post-emergence action against Abutilon theophrasti (ABUTH) ([10]; 320 g/ha) [%] | Post-emergence action against Abutilon theophrasti (ABUTH) ([10]; 1280 g/ha) [%] | Post-emergence action against Bassia scoparia (KCHSC) (Bassia scoparia (KCHSC) [11]; dosage 320 g/ha) [%] | Post-emergence action against Bassia scoparia (KCHSC) (Bassia scoparia (KCHSC) [11]; dosage 1280 g/ha) [%] | Pre-emergence action against Amaranthus retroflexus (AMARE) ([13]; dosage 320 g/ha) [%] | Pre-emergence action against Amaranthus retroflexus (AMARE) ([13]; dosage 1280 g/ha) [%] | Pre-emergence action against Setaria viridis (SETVI) (Setaria viridis (SETVI) [14]; dosage 1280 g/ha) [%] | Post-emergence action against Poa annua (POAAN) (Poa annua (POAAN) [15]; 320 g/ha) [%] | Post-emergence action against Poa annua (POAAN) (Poa annua (POAAN) [15]; 1280 g/ha) [%] | Post-emergence action against Amaranthus retroflexus (AMARE) ([16]; dosage 320 g/ha) [%] | Post-emergence action against Amaranthus retroflexus (AMARE) ([16]; dosage 1280 g/ha) [%] | Post-emergence action against Stellaria media (STEME) (Stellaria media (STEME) [19]; dosage 320 g/ha) [%] | Post-emergence action against Stellaria media (STEME) (Stellaria media (STEME) [19]; dosage 1280 g/ha) [%] | further results
1 | N#Cc1cccc(Oc2ccc(Cl)cn2)c1-c1cc(C(F)F)no1 [Example 1-55] | very good herbicidal activity | 100 | 100 | 100 | 100 | 100 | 100 | 100 | 100 | 100 | 100 | 100 | 100 | 100 | 100 | 100 | 100 | 100 | 100 | 100 | Post-emergence action against Setaria viridis (SETVI) (Setaria viridis (SETVI) [1]; 320 g/ha): 100%; Post-emergence action against Setaria viridis (SETVI) (Setaria viridis (SETVI) [1]; 1280 g/ha): 100%; Pre-emergence action against Stellaria media (STEME) (Stellaria media (STEME) [3]; dosage 320 g/ha): 100%; Pre-emergence action against Digitaria sanguinalis (DIGSA) ([4]; dosage 320 g/ha): 100%; Pre-emergence action against Abutilon theophrasti (ABUTH) ([5]; dosage 320 g/ha): 100%; Pre-emergence action against Lolium rigidum (LOLRI) (Lolium rigidum (LOLRI)): 100%; Pre-emergence action against Alopecurus myosuroides (ALOMY) ([7]; dosage 320 g/ha): 100%; Pre-emergence action against Alopecurus myosuroides (ALOMY) ([7]; dosage 1280 g/ha): 100%; Pre-emergence action against Veronica persica (VERPE) (Veronica persica (VERPE) [8]; dosage 320 g/ha): 100%; Pre-emergence action against Echinochloa crus-galli (ECHCG) ([9]; dosage 320 g/ha): 100%; Pre-emergence action against Echinochloa crus-galli (ECHCG) ([9]; dosage 1280 g/ha): 100%; Post-emergence action against Digitaria sanguinalis (DIGSA) ([12]; dosage 320 g/ha): 100%; Post-emergence action against Digitaria sanguinalis (DIGSA) ([12]; dosage 1280 g/ha): 100%; Pre-emergence action against Setaria viridis (SETVI) (Setaria viridis (SETVI) [14]; dosage 320 g/ha): 100%; Post-emergence action against Echinochloa crus-galli (ECHCG) [17]: 100%; Post-emergence action against Alopecurus myosuroides (ALOMY) ([18]; 320 g/ha): 100%; Post-emergence action against Alopecurus myosuroides (ALOMY) ([18]; 1280 g/ha): 100%; herbicidal activity against the harmful plants of Tables C1-C12 in pre-emergence treatment [20]: very good herbicidal activity; Pre-emergence action against Bassia scoparia (KCHSC) (Bassia scoparia (KCHSC) [21]; dosage 320 g/ha): 100%; Pre-emergence action against Bassia scoparia (KCHSC) (Bassia scoparia (KCHSC) [21]; dosage 1280 g/ha): 100%
2 | Cn1nc(-c2c(F)cccc2Oc2ncc(Cl)cc2F)cc1C(F)F [Example 1-61] | very good herbicidal activity | 100 | 100 | 100 | 100 | 100 | 100 | 100 | 100 | 100 | 100 | 100 | 100 | 90 | 100 | 100 | 100 | 100 | 100 | 100 | Pre-emergence action against Poa annua (POAAN) (Poa annua (POAAN) [22]; dosage 320 g/ha): 90%; Pre-emergence action against Poa annua (POAAN) (Poa annua (POAAN) [22]; dosage 1280 g/ha): 100%; herbicidal activity against the harmful plants of Tables C1-C12 in pre-emergence treatment [20]: very good herbicidal activity; Pre-emergence action against Bassia scoparia (KCHSC) (Bassia scoparia (KCHSC) [21]; dosage 1280 g/ha): 100%
